Laboratory results reported in patent publication US20060074032A1 (Academic Pharmaceuticals, Inc., priority 2000, published 2006).
Read-outs that look alike come from different tables or passages of the source.

Tests used:
rat colon = assay: Rat colon GI contractility (deflection magnitude); details: n = 5 per group
Procedure: The ileum was harvested and placed in warmed (37° C.) Krebs […] buffer and oxygenated (95% O2 and 5% CO2). Segments approximately 4.5 cm long were placed on a transducer (Gilson Instruments) and a preload of 2 gm was applied. The tissue was placed in a chamber and bathed in Tyrode's solution (37.5° C.) and gassed with 95% O2 and 5% CO2. Muscle contractions were measured isometrically. After stable contractions were obtained, a study compound was added to the tissue bath and recordings made until a new steady state of contraction was obtained. Following a washout period, contractions were recorded during a new steady state period, then the procedure repeated with at a second dose of the drug being evaluated. Changes in contraction magnitude were recorded as the percentage change from baseline. This procedure is a modification of the technique described by Van Nueten and associates (Van Nueten, et al., Inhibition of dopamine receptors in the stomach: an explanation of the gastrokinetic properties of domperidone. Life Sciences 1978, 23:453-458). […] A segment of rat colon was suspended in a constant temperature bath as described above, and the baseline parameters measured oxygenated Tyrode's solution without erythromycin or chiral isolates.

rat ileum = assay: Rat ileum GI contractility (isometric muscle contraction); details: for Deflection Magnitude, percentage change from control / Slow Wave Amplitude, percentage change from control / Slow Wave Frequency, percentage change from control: n = 5
Procedure: The ileum was harvested and placed in warmed (37° C.) Krebs […] buffer and oxygenated (95% O2 and 5% CO2). Segments approximately 4.5 cm long were placed on a transducer (Gilson Instruments) and a preload of 2 gm was applied. The tissue was placed in a chamber and bathed in Tyrode's solution (37.5° C.) and gassed with 95% O2 and 5% CO2. Muscle contractions were measured isometrically. After stable contractions were obtained, a study compound was added to the tissue bath and recordings made until a new steady state of contraction was obtained. Following a washout period, contractions were recorded during a new steady state period, then the procedure repeated with at a second dose of the drug being evaluated. Changes in contraction magnitude were recorded as the percentage change from baseline. This procedure is a modification of the technique described by Van Nueten and associates (Van Nueten, et al., Inhibition of dopamine receptors in the stomach: an explanation of the gastrokinetic properties of domperidone. Life Sciences 1978, 23:453-458).

IKs currents = molecular target: T1, IKs currents (Homo sapiens, UniProt P51787); details: cited from earlier work
T1 construct: expressed in transfected cells; host or cells: Xenopus oocytes injected with cRNA (pSP64 poly(A) constructs)
T1 sequence (P51787 whole entry): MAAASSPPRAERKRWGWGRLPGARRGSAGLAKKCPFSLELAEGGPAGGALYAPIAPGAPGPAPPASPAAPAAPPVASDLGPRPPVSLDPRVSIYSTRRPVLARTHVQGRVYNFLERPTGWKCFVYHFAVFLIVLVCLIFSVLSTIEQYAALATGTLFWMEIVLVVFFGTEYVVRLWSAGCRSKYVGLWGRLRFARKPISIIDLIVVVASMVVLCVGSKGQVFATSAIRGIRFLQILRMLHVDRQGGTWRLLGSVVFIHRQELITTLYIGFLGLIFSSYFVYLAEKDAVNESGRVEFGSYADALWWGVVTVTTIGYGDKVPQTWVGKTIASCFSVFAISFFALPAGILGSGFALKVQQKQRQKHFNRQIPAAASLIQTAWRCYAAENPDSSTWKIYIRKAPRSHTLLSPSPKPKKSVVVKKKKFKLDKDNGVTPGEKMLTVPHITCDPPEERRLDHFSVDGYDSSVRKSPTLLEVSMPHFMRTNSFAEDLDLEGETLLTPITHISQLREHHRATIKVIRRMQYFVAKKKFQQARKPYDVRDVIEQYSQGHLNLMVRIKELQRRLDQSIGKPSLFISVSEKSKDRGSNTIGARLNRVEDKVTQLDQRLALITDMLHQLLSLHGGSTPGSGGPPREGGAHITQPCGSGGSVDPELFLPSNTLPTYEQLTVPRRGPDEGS

Row | Compound | Percent Change in Deflection Magnitude, change from control (rat colon; 10^−5 M) | Percent Change in Deflection Magnitude, change from control (rat colon; 10^−6 M) | Percent Change in Deflection Magnitude, change from control (rat colon; 10^−7 M) | Effect on slow contractile wave amplitude, slow wave frequency and magnitude of deflection, in words (rat ileum; 10^−7 M to 10^−5 M) | Deflection Magnitude, percentage change from control (rat ileum; erythromycin 10^−5 M) | Slow Wave Amplitude, percentage change from control (rat ileum; erythromycin 10^−5 M) | Slow Wave Frequency, percentage change from control (rat ileum; erythromycin 10^−5 M) | Deflection Magnitude, percentage change from control (rat ileum; erythromycin 10^−6 M) | Slow Wave Amplitude, percentage change from control (rat ileum; erythromycin 10^−6 M) | Slow Wave Frequency, percentage change from control (rat ileum; erythromycin 10^−6 M) | Deflection Magnitude, percentage change from control (rat ileum; erythromycin 10^−7 M) | Slow Wave Amplitude, percentage change from control (rat ileum; erythromycin 10^−7 M) | Slow Wave Frequency, percentage change from control (rat ileum; erythromycin 10^−7 M) | Reduction of IKs currents (IKs currents; quinidine 10^−4 M) | Reduction of IKs currents (IKs currents; quinidine 10^−6 M)
1 | Erythromycin | 95% | 70% | 33% | dose-related increase | 33% | 17% | 27% | 22% | 15% | 21% | 14% | 12% | 14% |  | 
2 | C=C[C@H]1C[N@@]2CC[C@H]1C[C@@H]2[C@@H](O)c1ccnc2ccc(OC)cc12 [quinidine] |  |  |  |  |  |  |  |  |  |  |  |  |  | 52% | 14%
